Assay [1] concerns the target T1, CAIX-expressing human HT-29 colorectal cancer cells (Homo sapiens, UniProt Q16790).
T1 construct: CAIX-expressing human HT-29 colorectal cancer cells; host or cells: HT-29 human colorectal cancer cells
The experiment in a line: FACS binding assay (IC50 determination, competition with tracer 3BP-2776 or 3BP-4149). The following applies: 4° C., 1 hour, read-out: pIC50 category (activity) (converted). In a few lines:
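HT-29 cells in FACS buffer (PBS, 1% FCS) at 500.000 cells/ml were exposed to compounds competing with a labelled tracer, with biotinylated compounds detected by 1 μg/mL APC-streptavidin for 30 min on ice. APC/Cy5 median fluorescence was read by flow cytometry and IC50 derived by 4PL fit.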
Background: Flow cytometry measures light scatter and fluorescence of single cells or particles in a stream.

Assay [2] has as its target T2, human carbonic anhydrase IX (hCAIX-Fc) (Homo sapiens, UniProt Q16790).
T2 construct: purchased SinoBliological (Sino Biological) 10107-H02H
The experiment in a line: Surface plasmon resonance assay with hCAIX-Fc. It counts as binding. Conditions: 25° C.; for t1/2 category (activity): SPR dissociation half-life, hCAIX-Fc; for Kd: SPR, hCAIX-Fc captured, read-out: pKD category (activity) (converted). Here is the method: Surface plasmon resonance (SPR) studies were performed using a Biacore™ T200 SPR system (GE Healthcare Life Sciences). Briefly, polarized light is directed towards a gold-labeled sensor surface, and minimum intensity reflected light is detected. The angle of reflected light changes as molecules bind and dissociate.
Fc-fusion protein of human carbonic anhydrase IX (hCAIX-Fc, SinoBliological, Cat #10107-H02H) was captured on a Fc-capture chip (Biacore™ CM5 sensor chip coated with ˜300 RU of an Fc-binding peptide). Recombinant carbonic anydrase was diluted in Running Buffer (PBST, 0.1% DMSO) to a final concentration 100 or 200 nM and than flushed over the Fc-capture chip to immobilized ˜1000 RUs.
Stock solutions of test compounds were prepared by dissolving each compound in DMSO. DMSO stock solution were diluted 1:1000 in Running Buffer without DMSO. Further sequencial dilutions were made with Running Buffer containing 0.1% DMSO. SPR binding analyses were performed in Single Cycle Kinetic (SCK) mode at 25° C. Flow cell coated with the Fc-binding peptide only served as reference flowcell. After each SCK run, carbonic andydrase IX was removed with 10 mM glycine buffer, pH 1.5.
In between every three SCK measurements, a blank run with Running Buffer instead of test compound was included to correct for baseline drifts (double blanking methods).
Table 11 describes the protocol steps for Fc-fusion target capturing and assessment of the binding kinetics.
For each test compound, SPR raw data in the form of resonance units (RU) were plotted as sensorgrams using the Biacore™ T200 control software. The signal from the blank sensorgram was subtracted from that of the test compound sensorgram (blank corrected). The blank corrected sensorgram was corrected for baseline drift by subtracting the sensorgram of a SCK run without the test compound (running buffer only). The association rate (kon), dissociation rate (koff), dissociation constant (KD), and t1/2 were calculated from Blank-normalized SPR data using the 1:1 Langmuir binding model from the Biacore™ T200 evaluation software. Raw data and fit results were imported as text files in IDBS. The pKD value (negative decadic logarithm of dissociation constant) was calculated in the IDBS excel template.

[3] abbreviates: FACS binding assay, HT-29 cells, competition with tracer 3BP-4149 (3 nM, Cy5-labeled).
[4] abbreviates: FACS binding assay, HT-29 cells, competition with tracer 3BP-2776 (10 nM, biotin-labeled).

Read-outs that look alike come from different tables or passages of the source. Starred links: 1 amine or outer side, 2 acyl side, 3 side chain; linkers in the order of their positions; H or OH if unused. Positions of bridges follow the written chain, without caps; N, C: chain ends. Non-standard residues stand in square brackets, D forms with d. Residues, ends and D or L forms follow the SMILES beside them. *: point of attachment. Phe(3-NHCO(CH2)3SO2NH2) = N[C@@H](Cc1cccc(NC(=O)CCCS(N)(=O)=O)c1)C(=O)O; X35 = CC(=O)N[C@@H](CCC(=O)Nc1cccc(C[C@H](N[*:1])C(=O)[*:2])c1)C(=O)O; X34 = O=C(CCc1nc[nH]n1)Nc1cccc(C[C@H](N[*:1])C(=O)[*:2])c1; DOTA = O=C(O)CN1CCN(CC(=O)O)CCN(CC(=O)*)CCN(CC(=O)O)CC1; Propanoyl(3-SO2NH2) = NS(=O)(=O)CCC(=O)*; Phe(4-NH2) = Nc1ccc(C[C@H](N)C(=O)O)cc1; mXylylene = c1cc(C[*:1])cc(C[*:2])c1; X12 = O=C(CC1CCN([*:1])CC1)[*:2]; X2 = O=C(CN1CCC(N[*:1])CC1)[*:2]; X1 = O=C(CN1CCN([*:1])CC1)[*:2]; Ac5c = NC1(C(=O)O)CCCC1; Dap = NC[C@H](N)C(=O)O Where only a bound is given, the exact number is not on record here.

Consider `CC(=O)N[C@@H](CCC(=O)Nc1cccc(C[C@@H]2NC(=O)[C@H](CC(=O)O)NC(=O)[C@H]3CCCN3C(=O)[C@H](CCC(=O)O)NC(=O)[C@@H](NC(=O)[C@H](Cc3ccc(O)cc3)NC(=O)[C@@H](NC(=O)CN3CCC(NC(=O)CN4CCN(CC(=O)O)CCN(CC(=O)O)CCN(CC(=O)O)CC4)CC3)C(C)C)CSCc3cccc(c3)CSC[C@@H](C(N)=O)NC(=O)[C@H](CO)NC(=O)[C@H](Cc3c[nH]c4ccccc34)NC(=O)[C@H]([C@@H](C)O)NC(=O)[C@H](CC(C)C)NC2=O)c1)C(=O)O` [3BP-4361] ({DOTA}-[X2]VYCE[dP]D[X35]LTWSC-NH2; linker 4-13 via mXylylene), for which, in assay [1] (setting [3]), the IC50 is 10 to 79.4 nM. Further, in assay [2], the “t1/2 category (activity)” value is reported as “A (t1/2>15.0 minutes)” and the Kd was < 10 nM.
In the case of `CC(C)C[C@@H]1NC(=O)[C@H](Cc2cccc(NC(=O)CCCS(N)(=O)=O)c2)NC(=O)[C@H](CC(=O)O)NC(=O)[C@H]2CCCN2C(=O)[C@H](CCC(=O)O)NC(=O)[C@@H](NC(=O)[C@H](CCC(N)=O)NC(=O)CN2CCN(CC(=O)O)CCN(CC(=O)O)CCN(CC(=O)O)CC2)CSCc2cccc(c2)CSC[C@@H](C(N)=O)NC(=O)[C@H](CO)NC(=O)[C@H](Cc2c[nH]c3ccccc23)NC(=O)[C@H]([C@@H](C)O)NC1=O` [3BP-4453], the IC50 in assay [1] (setting [4]) is < 10 nM. In assay [2], the “t1/2 category (activity)” value was “A (t1/2>15.0 minutes)” and the Kd is < 10 nM.
Consider `CC(C)C[C@@H]1NC(=O)[C@H](Cc2c[nH]c3ccccc23)NC(=O)[C@H](CC(=O)O)NC(=O)[C@H]2CCCN2C(=O)[C@H](CCC(=O)O)NC(=O)[C@@H]2CSCc3cccc(c3)CSC[C@@H](C(N)=O)NC(=O)[C@H](CC(=O)NC[C@H](NC(=O)[C@@H](NC(=O)CN3CCC(NC(=O)CN4CCN(CC(=O)O)CCN(CC(=O)O)CCN(CC(=O)O)CC4)CC3)C(C)C)C(=O)N2)NC(=O)[C@H](Cc2c[nH]c3ccccc23)NC(=O)[C@H]([C@@H](C)O)NC1=O` [3BP-4176] ({DOTA}-[X2]V[Dap]CE[dP]DWLTWDC-NH2; lactam 3-12; linker 4-13 via mXylylene), for which the IC50 in assay [1] (setting [4]) is < 10 nM. Moreover, in assay [2], the “t1/2 category (activity)” value is “C (t1/2 between 2.1 and 5.0 minutes)”; the Kd is < 10 nM.
With `CC(C)C[C@@H]1NC(=O)[C@H](Cc2cccc(NC(=O)CCCS(N)(=O)=O)c2)NC(=O)[C@H](CC(=O)O)NC(=O)[C@H]2CCCN2C(=O)[C@H](CCC(=O)O)NC(=O)[C@@H]2CSCc3cccc(c3)CSC[C@@H](C(N)=O)NC(=O)[C@H](CNC(=O)C[C@H](NC(=O)CN3CCN(C(=O)CN4CCN(CC(=O)O)CCN(CC(=O)O)CCN(CC(=O)O)CC4)CC3)C(=O)N2)NC(=O)[C@H](Cc2c[nH]c3ccccc23)NC(=O)[C@H]([C@@H](C)O)NC1=O` [3BP-4497] ({DOTA}-[X1]DCE[dP]D[Phe(3-NHCO(CH2)3SO2NH2)]LTW[Dap]C-NH2; lactam 2-11; linker 3-12 via mXylylene), in assay [1] (setting [4]), the IC50 is 10 to 79.4 nM. Also, in assay [2], the “t1/2 category (activity)” value is “A (t1/2>15.0 minutes)” and the Kd was < 10 nM.
Take `CC(C)[C@H](NC(=O)CN1CCC(NC(=O)CN2CCN(CC(=O)O)CCN(CC(=O)O)CCN(CC(=O)O)CC2)CC1)C(=O)N[C@@H](Cc1ccc(O)cc1)C(=O)N[C@H]1CSCc2cccc(c2)CSC[C@@H](C(N)=O)NC(=O)[C@H](CO)NC(=O)[C@H](Cc2c[nH]c3ccccc23)NC(=O)[C@H]([C@@H](C)O)NC(=O)C2(CCCC2)NC(=O)[C@H](Cc2c[nH]c3ccccc23)NC(=O)[C@H](CC(=O)O)NC(=O)[C@H]2CCCN2C(=O)[C@H](CCC(=O)O)NC1=O` [3BP-3587] ({DOTA}-[X2]VYCE[dP]DW[Ac5c]TWSC-NH2; linker 4-13 via mXylylene): the IC50 in assay [1] (FACS competition on HT-29 cells, Tracer ID 3BP-2776 (10 nM, biotin-labeled)) was < 10 nM. Besides, in assay [2], the “t1/2 category (activity)” value was “C (t1/2 between 2.1 and 5.0 minutes)”; the Kd is < 10 nM.
For `CC(C)C[C@@H]1NC(=O)[C@H](Cc2cccc(NC(=O)CCCS(N)(=O)=O)c2)NC(=O)[C@H](CC(=O)O)NC(=O)[C@H]2CCCN2C(=O)[C@H](CCC(=O)O)NC(=O)[C@@H]2CSCc3cccc(c3)CSC[C@@H](C(N)=O)NC(=O)[C@H](CNC(=O)CC[C@H](NC(=O)CN3CCN(C(=O)CN4CCN(CC(=O)O)CCN(CC(=O)O)CCN(CC(=O)O)CC4)CC3)C(=O)N2)NC(=O)[C@H](Cc2c[nH]c3ccccc23)NC(=O)[C@H]([C@@H](C)O)NC1=O` [3BP-4502] ({DOTA}-[X1]ECE[dP]D[Phe(3-NHCO(CH2)3SO2NH2)]LTW[Dap]C-NH2; lactam 2-11; linker 3-12 via mXylylene), the IC50 in assay [1] (setting [4]) is < 10 nM. Also, in assay [2], the “t1/2 category (activity)” value is listed as “A (t1/2>15.0 minutes)” and the Kd was < 10 nM.
`CC(C)C[C@@H]1NC(=O)[C@H](Cc2cccc(NC(=O)CCc3nc[nH]n3)c2)NC(=O)[C@H](CC(=O)O)NC(=O)[C@H]2CCCN2C(=O)[C@H](CCC(=O)O)NC(=O)[C@@H](NC(=O)[C@H](Cc2ccc(O)cc2)NC(=O)[C@@H](NC(=O)CN2CCC(NC(=O)CN3CCN(CC(=O)O)CCN(CC(=O)O)CCN(CC(=O)O)CC3)CC2)C(C)C)CSCc2cccc(c2)CSC[C@@H](C(N)=O)NC(=O)[C@H](CO)NC(=O)[C@H](Cc2c[nH]c3ccccc23)NC(=O)[C@H]([C@@H](C)O)NC1=O` [3BP-4324] ({DOTA}-[X2]VYCE[dP]D[X34]LTWSC-NH2; linker 4-13 via mXylylene): the IC50 in assay [1] (setting [3]) was 10 to 79.4 nM. Besides, in assay [2], the “t1/2 category (activity)” value was “A (t1/2>15.0 minutes)” and the Kd is < 10 nM.
Regarding `CC(C)C[C@@H]1NC(=O)[C@H](Cc2c[nH]c3ccccc23)NC(=O)[C@H](CC(=O)O)NC(=O)[C@H]2CCCN2C(=O)[C@H](CCC(=O)O)NC(=O)[C@@H]2CSCc3cccc(c3)CSC[C@@H](C(N)=O)NC(=O)[C@H](CNC(=O)C[C@H](NC(=O)CC3CCN(C(=O)CN4CCN(CC(=O)O)CCN(CC(=O)O)CCN(CC(=O)O)CC4)CC3)C(=O)N2)NC(=O)[C@H](Cc2c[nH]c3ccccc23)NC(=O)[C@H]([C@@H](C)O)NC1=O` [3BP-4259] ({DOTA}-[X12]DCE[dP]DWLTW[Dap]C-NH2; lactam 2-11; linker 3-12 via mXylylene), in assay [1] (setting [4]), the IC50 is < 10 nM. In addition, in assay [2], the “t1/2 category (activity)” value was “D (t1/2≤2.0 minutes)” and the Kd was < 10 nM.
In the case of `CC(C)C[C@@H]1NC(=O)[C@H](Cc2ccc(NC(=O)CCS(N)(=O)=O)cc2)NC(=O)[C@H](CC(=O)O)NC(=O)[C@H]2CCCN2C(=O)[C@H](CCC(=O)O)NC(=O)[C@@H]2CSCc3cccc(c3)CSC[C@@H](C(N)=O)NC(=O)[C@H](CNC(=O)CC[C@H](NC(=O)CN3CCN(CC(=O)O)CCN(CC(=O)O)CCN(CC(=O)O)CC3)C(=O)N2)NC(=O)[C@H](Cc2c[nH]c3ccccc23)NC(=O)[C@H]([C@@H](C)O)NC1=O` [3BP-4505] ({DOTA}-ECE[dP]D[Phe(4-NH2)](Propanoyl(3-SO2NH2))LTW[Dap]C-NH2; lactam 1-10; linker 2-11 via mXylylene), the IC50 in assay [1] (setting [4]) was < 10 nM. Besides, in assay [2], the “t1/2 category (activity)” value was “A (t1/2>15.0 minutes)” and the Kd was < 10 nM.

The values above are taken from US20250339569A1, “CARBONIC ANHYDRASE IX LIGANDS” (priority 2021, published 2025).
